Tests used:
[1] = tested on: subclones of RKO colon adenocarcinoma cells (RKOp27 or RKOp21) arrested by Ponasterone A; experiment: Alamar Blue cell viability assay, cell cycle specific mode of action: cells arrested by ectopic p27Kip1 induced by Ponasterone A versus proliferating cells; format: cell-based; conditions: Homo sapiens, RKO p27 induced (arrested) cells, 10 μM Ponasterone A, 72 hours, value = class bound given in Table A, read-out: −logIC50 RKO p27 induced (arrested) (converted)
Summary of the method: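 RKOp27 or RKOp21 cells, 15000/well in DMEM/10% FCS, either arrested by p27Kip1 induced with 10 μM Ponasterone A or proliferating without inducer; compound added after 24 h, 72 h at 37° C. Alamar Blue fluorescence (544/590 nm), viability as % of untreated cells; −log IC50 reported.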

[2] = tested on: RKO (RKOp27) human colon adenocarcinoma cells; experiment: Alamar Blue cell viability assay, anti-proliferative/cytotoxic activity on proliferating RKO subclones; format: cell-based; conditions: RKOp27, 72 h, RKO p27 uninduced (proliferating) cells, value = class bound given in Table A, read-out: −logIC50 RKO p27 uninduced (proliferating) (converted)
Summary of the method: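 RKOp27 subclones (5000 cells/well) were exposed 24 h after seeding to semi-log compound dilutions in DMEM with 10% FCS, in quadruplicate, for 72 h at 37 °C. Viability was read by Alamar Blue fluorescence (544/590 nm) relative to untreated cells (1% DMSO medium). IC50 came from concentration-effect curves and is reported as −log IC50 [mol/l].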

| Compound | IC50 [1] | IC50 [2] |
| --- | --- | --- |
| N#Cc1c(NC(=O)/C=C/c2cccnc2)sc2c1CCC(COC(=O)N1CCCC1)C2 (stereo not drawn) [Example 68, Pyrrolidine-1-carboxylic acid 3-cyano-2-((E)-3-pyridin-3-yl-allanoylamino)-4,5,6,7-tetrahydro-benzo[b]thiophen-6-ylmethyl ester] | ≥ 100000 nM | ≤ 501 nM |
| CCOc1ccccc1CCC(=O)Nc1sc2c(c1C#N)CCC(COC(=O)NCc1cn(C)cn1)C2 (stereo not drawn) [Example 178, (1-Methyl-1H-imidazol-4-ylmethyl)-carbamic acid 3-cyano-2-[3-(2-ethoxy-phenyl)-propanoylamino]-4,5,6,7-tetrahydro-benzo[b]thiophen-6-ylmethyl ester] | ≥ 50100 nM | ≤ 501 nM |
| COc1cccc(C(C)CC(=O)Nc2sc3c(c2C#N)CCC(OC(=O)N2CCOCC2)C3)c1 (stereo not drawn) [Example 374, Morpholine-4-carboxylic acid 3-cyano-2-(3-(3-methoxy-phenyl)-butanoylamino)-4,5,6,7-tetrahydro-benzo[b] thiophen-6-yl ester] | ≥ 50100 nM | ≤ 501 nM |
| N#Cc1c(NC(=O)/C=C/c2cccnc2)sc2c1CCC(OC(=O)NCC1CC1)C2 (stereo not drawn) [Example 109, Cyclopropylmethyl-carbamic acid 3-cyano-2-((E)-3-pyridin-3-yl-allanoylamino)-4,5,6,7-tetrahydro-benzo[b]thiophen-6-yl ester] | ≥ 100000 nM | ≤ 501 nM |
| CC(CC(=O)Nc1sc2c(c1C#N)CCC(OC(=O)OCc1nccs1)C2)c1ccccc1 (stereo not drawn) [Example 368, Carbonic acid 3-cyano-2-(3-phenyl-butanoylamino)-4,5,6,7-tetrahydro-benzo[b]thiophen-6-yl ester thiazol-2-ylmethyl ester] | ≥ 50100 nM | 501 to 2000 nM |
| N#Cc1c(NC(=O)/C=C/c2cccnc2)sc2c1CCC(COC(=O)N1CCCO1)C2 (stereo not drawn) [Example 116, Isoxazolidine-2-carboxylic acid 3-cyano-2-((E)-3-pyridin-3-yl-allanoylamino)-4,5,6,7-tetrahydro-benzo[b]thiophen-6-ylmethyl ester] | ≥ 100000 nM | ≤ 501 nM |
| CCOc1ccccc1CCC(=O)Nc1sc2c(c1C#N)CCC(COC(=O)NCc1ccccn1)C2 (stereo not drawn) [Example 184, Pyridin-2-ylmethyl-carbamic acid 3-cyano-2-[3-(2-ethoxy-phenyl)-propanoylamino]-4,5,6,7-tetrahydro-benzo[b]thiophen-6-ylmethyl ester] | ≥ 100000 nM | ≤ 501 nM |
| CCOc1ccccc1CCC(=O)Nc1sc2c(c1C#N)CCC(OC(=O)NCc1cnoc1C)C2 (stereo not drawn) [Example 204, (5-Methyl-isoxazol-4-ylmethyl)-carbamic acid 3-cyano-2-[3-(2-ethoxy-phenyl)-propanoylamino]-4,5,6,7-tetrahydro-benzo[b]thiophen-6-yl ester] | ≥ 100000 nM | ≤ 501 nM |
| N#Cc1c(NC(=O)CCc2cccnc2)sc2c1CCC(COC(=O)N1CCCC1)C2 (stereo not drawn) [Example 258, Pyrrolidine-1-carboxylic acid 3-cyano-2-(3-pyridin-3-yl-propanoylamino)-4,5,6,7-tetrahydro-benzo[b]thiophen-6-ylmethyl ester] | ≥ 100000 nM | 501 to 2000 nM |
| CC(CC(=O)Nc1sc2c(c1C#N)CCC(OC(=O)NCc1ccno1)C2)c1ccccc1 (stereo not drawn) [Example 372, (Isoxazol-5-ylmethyl)-carbamic acid 3-cyano-2-(3-phenyl-butanoylamino)-4,5,6,7-tetrahydro-benzo[b]thiophen-6-yl ester] | ≥ 50100 nM | ≤ 501 nM |
| N#Cc1c(NC(=O)/C=C/c2cccnc2)sc2c1CCC(OC(=O)N1CC=CC1)C2 (stereo not drawn) [Example 92, 2,5-Dihydro-pyrrole-1-carboxylic acid 3-cyano-2-((E)-3-pyridin-3-yl-allanoylamino)-4,5,6,7-tetrahydro-benzo[b]thiophen-6-yl ester] | ≥ 100000 nM | ≤ 501 nM |
| COc1cccc(CCC(=O)Nc2sc3c(c2C#N)CCC(OC(=O)NCC2CCOCC2)C3)c1 (stereo not drawn) [Example 220] | ≥ 100000 nM | 501 to 2000 nM |
| CCOc1ccccc1CCC(=O)Nc1sc2c(c1C#N)CCC(COC(=O)NCc1ncc[nH]1)C2 (stereo not drawn) [Example 179, (1H-Imidazol-2-ylmethyl)-carbamic acid 3-cyano-2-[3-(2-ethoxy-phenyl)-propanoylamino]-4,5,6,7-tetrahydro-benzo[b]thiophen-6-ylmethyl ester] | ≥ 10000 nM | ≤ 501 nM |
| COc1cccc(CCC(=O)Nc2sc3c(c2C#N)CCC(COC(=O)NCc2cnoc2C)C3)c1 (stereo not drawn) [Example 242, (5-Methyl-isoxazol-4-ylmethyl)-carbamic acid 3-cyano-2-[3-(3-methoxy-phenyl)-propanoylamino]-4,5,6,7-tetrahydro-benzo[b]thiophen-6-ylmethyl ester] | ≥ 100000 nM | ≤ 501 nM |
| CC(CC(=O)Nc1sc2c(c1C#N)CCC(OC(=O)NCc1nccn1C)C2)c1ccccc1 (stereo not drawn) [Example 292, (1-Methyl-1H-imidazol-2-ylmethyl)-carbamic acid 3-cyano-2-(3-phenyl-butanoylamino)-4,5,6,7-tetrahydro-benzo[b] thiophen-6-yl ester] | ≥ 10000 nM | 501 to 2000 nM |
| COc1cccc(C(C)CC(=O)Nc2sc3c(c2C#N)CCC(COC(=O)NCc2cc(C)nn2C)C3)c1 (stereo not drawn) [Example 340, (2,5-Dimethyl-2H-pyrazol-3-ylmethyl)-carbamic acid 3-cyano-2-[3-(3-methoxy-phenyl)-butanoyl-amino]-4,5,6,7-tetrahydro-benzo[b]thiophen-6-ylmethyl ester] | ≥ 10000 nM | 501 to 2000 nM |
| CCNC(=O)OC1CCc2c(sc(NC(=O)/C=C/c3cccnc3)c2C#N)C1 (stereo not drawn) [Example 3, Ethyl-carbamic acid 3-cyano-2-((E)-3-pyridin-3-yl-allanoylamino)-4,5,6,7-tetrahydro-benzo[b]thiophen-6-yl ester] | ≥ 100000 nM | ≤ 501 nM |
| Cc1cc(CNC(=O)OCC2CCc3c(sc(NC(=O)/C=C/c4cnccc4C)c3C#N)C2)no1 (stereo not drawn) [Example 134, (5-Methyl-isoxazol-3-ylmethyl)-carbamic acid 3-cyano-2-[(E)-3-(4-methyl-pyridin-3-yl)-allanoylamino]-4,5,6,7-tetrahydro-benzo[b]thiophen-6-ylmethyl ester] | ≥ 100000 nM | ≤ 501 nM |
| CCOc1ccccc1CCC(=O)Nc1sc2c(c1C#N)CCC(OC(=O)NCCn1ccnc1)C2 (stereo not drawn) [Example 163, (2-Imidazol-1-yl-ethyl)-carbamic acid 3-cyano-2-[3-(2-ethoxy-phenyl)-propanoylamino]-4,5,6,7-tetrahydro-benzo[b]thiophen-6-yl ester] | ≥ 10000 nM | ≤ 501 nM |
| CC(CC(=O)Nc1sc2c(c1C#N)CCC(COC(=O)NCCn1ccnc1)C2)c1ccccc1 (stereo not drawn) [Example 310, (2-Imidazol-1-yl-ethyl)-carbamic acid 3-cyano-2-(3-phenyl-butanoyl-amino)-4,5,6,7-tetrahydro-benzo[b]thiophen-6-ylmethyl ester] | ≥ 10000 nM | 501 to 2000 nM |
| N#Cc1c(NC(=O)/C=C/c2cccnc2)sc2c1CCC(OC(=O)N1CCCCO1)C2 (stereo not drawn) [Example 120, [1,2]Oxazinane-2-carboxylic acid 3-cyano-2-((E)-3-pyridin-3-yl-allanoylamino)-4,5,6,7-tetrahydro-benzo[b]thiophen-6-yl ester] | ≥ 100000 nM | ≤ 501 nM |
| Cc1cc(CNC(=O)OCC2CCc3c(sc(NC(=O)CCc4cccnc4)c3C#N)C2)no1 (stereo not drawn) [Example 256, (5-Methyl-isoxazol-3-ylmethyl)-carbamic acid 3-cyano-2-(3-pyridin-3-yl-propanoylamino)-4,5,6,7-tetrahydro-benzo[b]thiophen-6-ylmethyl ester] | ≥ 100000 nM | 501 to 2000 nM |
| CCOc1ccccc1CCC(=O)Nc1sc2c(c1C#N)CCC(COC(=O)NCc1ccccc1)C2 (stereo not drawn) [Example 160, Benzyl-carbamic acid 3-cyano-2-[3-(2-ethoxy-phenyl)-propanoylamino]-4,5,6,7-tetrahydro-benzo[b]thiophen-6-ylmethyl ester] | ≥ 100000 nM | ≤ 501 nM |
| COc1cccc(CCC(=O)Nc2sc3c(c2C#N)CCC(OC(=O)NCc2cn(C)cn2)C3)c1 (stereo not drawn) [Example 222, (1-Methyl-1H-imidazol-4-ylmethyl)-carbamic acid 3-cyano-2-[3-(3-methoxy-phenyl)-propanoylamino]-4,5,6,7-tetrahydro-benzo[b]thiophen-6-yl ester] | ≥ 100000 nM | 501 to 2000 nM |
| COc1cccc(CCC(=O)Nc2sc3c(c2C#N)CCC(OC(=O)NCc2cnoc2C)C3)c1 (stereo not drawn) [Example 227, (5-Methyl-isoxazol-4-ylmethyl)-carbamic acid 3-cyano-2-[3-(3-methoxy-phenyl)-propanoylamino]-4,5,6,7-tetrahydro-benzo[b]thiophen-6-yl ester] | ≥ 100000 nM | ≤ 501 nM |
| Cn1cccc1CNC(=O)OC1CCc2c(sc(NC(=O)/C=C/c3cccnc3)c2C#N)C1 (stereo not drawn) [Example 56, (1-Methyl-1H-pyrrol-2-ylmethyl)-carbamic acid 3-cyano-2-((E)-3-pyridin-3-yl-allanoylamino)-4,5,6,7-tetrahydro-benzo[b]thiophen-6-yl ester] | ≥ 100000 nM | ≤ 501 nM |
| CCOc1ccccc1CCC(=O)Nc1sc2c(c1C#N)CCC(COC(=O)NCc1cc(C)on1)C2 (stereo not drawn) [Example 182, (5-Methyl-isoxazol-3-ylmethyl)-carbamic acid 3-cyano-2-[3-(2-ethoxy-phenyl)-propanoylamino]-4,5,6,7-tetrahydro-benzo[b]thiophen-6-ylmethyl ester] | ≥ 100000 nM | ≤ 501 nM |
